# Paper PMC4008364, “Alleviation of behavioral hypersensitivity in mouse models of inflammatory pain with two structurally different casein kinase 1 (CK1) inhibitors” (Molecular Pain, 2014)
# Substitutions are numbered along the chain they refer to. Like-named read-outs stand apart in the source and are kept apart here.
# Columns and labels:
# CK1ϵ = target: T1, CK1ϵ (Homo sapiens, UniProt P49674); test: PER3 nuclear translocation assay, HEK293 cells expressing CK1ϵ; type: cell-based; details: 1 hour pre-incubation, 8 hours doxycycline
# T1 construct: F2A peptide (self-cleaving link to EGFP; its remnant stays on the CK1 C-terminus) (C); expressed in transfected cells; co-expressing mCherry-PER3
# T1 sequence (P49674 whole entry): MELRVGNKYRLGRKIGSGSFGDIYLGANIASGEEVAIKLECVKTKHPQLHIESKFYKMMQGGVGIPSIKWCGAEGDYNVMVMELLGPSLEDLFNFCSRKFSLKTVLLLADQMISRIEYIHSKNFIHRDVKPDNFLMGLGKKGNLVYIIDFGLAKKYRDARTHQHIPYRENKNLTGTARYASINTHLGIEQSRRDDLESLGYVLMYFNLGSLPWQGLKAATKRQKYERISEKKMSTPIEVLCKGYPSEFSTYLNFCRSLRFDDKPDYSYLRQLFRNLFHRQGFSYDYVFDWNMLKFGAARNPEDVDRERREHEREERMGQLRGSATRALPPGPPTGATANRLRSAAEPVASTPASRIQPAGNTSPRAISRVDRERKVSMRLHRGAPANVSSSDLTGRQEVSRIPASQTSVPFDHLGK
# [1] = test system: carrageenan-induced inflammatory pain in mice; test: Carrageenan-induced acute inflammatory pain behaviors, intrathecal injection; type: in vivo, mouse; details: for withdrawal latency of the ipsilateral hind paw (thermal hyperalgesia), carrageenan / withdrawal threshold of the ipsilateral hind paw (mechanical allodynia), carrageenan: i.t., IC261 0.1-1 nmol, TG003 0.1-100 pmol
# Protocol: (§1) Male C57BL/6 J mice (5 weeks old) were purchased from Clea Japan, Inc. (Tokyo, Japan) and housed under controlled temperature (24 ± 1°C) and humidity (55 ± 10%) with a 12-hour light-dark cycle with food and water freely available. The animal experiments were approved by the Animal Care Committees of Tokyo Medical and Dental University (approval No. 0090173) and Kagoshima University (approval No. MD10053), and were conducted in accordance with the ethical guidelines for the study of experimental pain in conscious animals published by the International Association of the Study of Pain (1995) and the European Communities Council Directive of 24 November, 1986 (86/609/EEC).
# (§2) To produce acute and persistent inflammatory pain, carrageenan (2% lambda carrageenan in saline, 25 μl, Sigma, St. Louis, MO) and complete Freund’s adjuvant (CFA, 25 μl, Sigma) were injected into the plantar surface of the right hindpaw under light halothane anesthesia, respectively. Control mice were treated with saline or incomplete Freund’s adjuvant (IFA, Sigma), respectively. Mechanical allodynia and thermal hyperalgesia were measured using the Dynamic Plantar Aesthesiometer (Ugo Basile, Comerio VA, Italy) and the Paw Thermal Stimulator (UCSD, San Diego, CA, USA), respectively as described. In CFA model, these behavioral experiments were conducted 3 days after the injection. Intrathecal (i.t.) injection was given in a volume of 5 μl by percutaneous puncture through an intervertebral space at the level of the 5th or 6th lumbar vertebra, according to a previously reported procedure. An investigator, who was unaware of the drug treatment, performed all of the behavioral experiments.
# [2] = test system: CFA-induced inflammatory pain in mice; test: CFA-induced persistent inflammatory pain behaviors, intrathecal injection; type: in vivo, mouse; details: for withdrawal latency of the ipsilateral hind paw (thermal hyperalgesia), CFA / withdrawal threshold of the ipsilateral hind paw (mechanical allodynia), CFA: i.t., IC261 0.1-1 nmol, TG003 0.1-100 pmol, 3 days after CFA
# Protocol: as §1, §2
# CK1δ [3] = target: CK1δ (Homo sapiens, UniProt P48730); test: PER3 nuclear translocation assay, HEK293 cells expressing CK1δ; details: 30 μM, 1 hour pre-incubation, 8 hours doxycycline
# [4] = test system: substantia gelatinosa neurons; test: Whole-cell patch-clamp recording of sEPSCs in spinal cord slices; type: cell-based, mouse; details: for frequency and amplitude of sEPSCs, control mice: 1 μM superfusion, slices from control mice, holding potential -70 mV; for mean frequency of sEPSCs in inflammatory pain model mice: 1 μM, carrageenan- and CFA-inflamed mice
# Protocol: (§3) Adult mouse spinal cord slices were prepared according to the method of Yoshimura & Jessell. Briefly, 6 hours after carrageenan or saline injection, and 3 days after CFA or IFA injection, transverse slices (thickness, 800-900 μm) of the L5 spinal segments with the L5 dorsal root attached were cut on a vibrating blade microtome. The slices were superfused with Krebs solution (10-15 ml/min) saturated with 95% O2 and 5% CO2 at 36 ± 1°C. The composition of Krebs solution was as follows (in mM): NaCl 117; KCl 3.6; NaHCO3 25; NaH2PO4 1.2; CaCl2 2.5; MgCl2 1.2, and glucose 11 (pH 7.4 after gas saturation).
# Blind whole-cell patch-clamp recordings were made from the lamina II (substantia gelatinosa: SG) neurons ipsilateral to carrageenan, CFA, or vehicle (saline or IFA) injection in voltage clamp mode. Patch pipettes were fabricated from thin-walled, borosilicate, glass-capillary tubing (1.5 mm o.d., World Precision Instruments). After establishing the whole-cell configuration, neurons were held at the potential of -70 mV to record spontaneous excitatory postsynaptic currents (sEPSCs) and at the potential of 0 mV to record spontaneous inhibitory postsynaptic currents (sIPSC). Under these conditions, GABA- and glycine-mediated IPSCs and glutamate-mediated EPSCs, respectively, were negligible, because these holding potential were close to the reversal potentials of IPSCs and EPSCs, respectively. Recording electrodes were filled with either potassium gluconate-based solution (in mM: K-gluconate 135; KCl 5; CaCl2 0.5; MgCl2 2; EGTA 5; HEPES 5; ATP-Mg 5; adjusted with KOH to pH 7.2) to investigate EPSCs, or Cs-based solution (in mM: Cs2SO4 110; tetraethylammonium 5; CaCl2 0.5; MgCl2 2; EGTA 5; HEPES 5; ATP-Mg 5; adjusted with CsOH to pH 7.2) to examine IPSCs. The resistance of a typical patch pipette is 5-10 MΩ. Membrane currents were amplified with an Axopatch 200B amplifier (Molecular Devices, Sunnyvale, CA, USA) in voltage-clamp mode. Signals were low-pass filtered at 5 kHz and digitized at 333 kHz with an A/D converter (Digidata 1322, Molecular Devices). Data were stored with a personal computer using pCLAMP10 software and analyzed with Mini Analysis software (Synaptosoft Inc., Decatur, GA, USA).
# (§4) The average values of both frequency and amplitude of sEPSCs or sIPSCs during the control (1 min) and 5-10 min after the drug application (1 min period after the attainment of steady effect of each drug) were calculated and quantified as relative changes in frequency and amplitude.
# human CK1α = target: T2, human CK1α (Homo sapiens, UniProt P48729); test: In vitro kinase assay (QuickScout mobility shift assay), CK1α; type: biochemical
# T2 construct: Full-length human CK1α, CK1γ1, CK1γ2, CK1γ3; GST (N); purchased Carna Biosciences, Inc; host or cells: baculovirus system (insect cells)
# T2 sequence (P48729 whole entry): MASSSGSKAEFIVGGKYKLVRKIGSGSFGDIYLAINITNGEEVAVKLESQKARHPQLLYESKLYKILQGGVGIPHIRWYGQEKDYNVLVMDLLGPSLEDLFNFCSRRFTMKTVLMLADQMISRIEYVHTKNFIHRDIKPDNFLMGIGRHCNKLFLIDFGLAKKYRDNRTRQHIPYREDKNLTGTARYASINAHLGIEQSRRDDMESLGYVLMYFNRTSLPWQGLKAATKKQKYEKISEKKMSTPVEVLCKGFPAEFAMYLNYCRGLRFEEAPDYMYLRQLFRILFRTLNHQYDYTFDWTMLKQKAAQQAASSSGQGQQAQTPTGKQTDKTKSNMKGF
# From the text: (§5) […]; Carna Biosciences, Inc., Kobe, Japan). Detailed information on the assay condition is available on the website of Carna Biosciences (http://www.carnabio.com). Full-length human CK1α, CK1γ1, CK1γ2, CK1γ3 and catalytic domain of human CK1ϵ were expressed as N-terminal GST-fusion protein using baculovirus system, and purified by using glutathione sepharose chromatography. Catalytic domain of CK1δ was expressed as N-terminal GST-fusion protein in E. coli, and purified by using glutathione sepharose chromatography.
# human CK1γ1 = target: T3, human CK1γ1 (Homo sapiens, UniProt Q9HCP0); test: In vitro kinase assay (QuickScout mobility shift assay), CK1γ1; type: biochemical
# T3 construct: Full-length human CK1α, CK1γ1, CK1γ2, CK1γ3; GST (N); purchased Carna Biosciences, Inc; host or cells: baculovirus system (insect cells)
# T3 sequence (Q9HCP0 whole entry): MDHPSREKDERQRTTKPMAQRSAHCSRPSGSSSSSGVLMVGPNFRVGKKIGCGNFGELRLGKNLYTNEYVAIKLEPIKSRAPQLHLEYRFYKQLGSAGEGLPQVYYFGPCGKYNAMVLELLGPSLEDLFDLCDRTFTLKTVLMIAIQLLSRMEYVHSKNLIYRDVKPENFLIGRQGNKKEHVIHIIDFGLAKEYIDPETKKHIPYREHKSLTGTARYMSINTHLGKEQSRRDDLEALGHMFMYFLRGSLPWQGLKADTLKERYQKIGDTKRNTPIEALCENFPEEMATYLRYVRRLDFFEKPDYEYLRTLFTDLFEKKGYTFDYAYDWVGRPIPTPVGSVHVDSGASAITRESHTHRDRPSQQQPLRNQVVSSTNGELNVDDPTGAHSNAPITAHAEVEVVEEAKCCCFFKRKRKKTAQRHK
# From the text: as §5
# Clk1 = test system: Clk1; design: method as in PMID 15010457; details: range given for Clk1 and 4 isoforms together; read-out: IC50 against Clk1; cited from earlier work
# human CK1γ2 = target: T4, human CK1γ2 (Homo sapiens, UniProt P78368); test: In vitro kinase assay (QuickScout mobility shift assay), CK1γ2; type: biochemical
# T4 construct: Full-length human CK1α, CK1γ1, CK1γ2, CK1γ3; GST (N); purchased Carna Biosciences, Inc; host or cells: baculovirus system (insect cells)
# T4 sequence (P78368 whole entry): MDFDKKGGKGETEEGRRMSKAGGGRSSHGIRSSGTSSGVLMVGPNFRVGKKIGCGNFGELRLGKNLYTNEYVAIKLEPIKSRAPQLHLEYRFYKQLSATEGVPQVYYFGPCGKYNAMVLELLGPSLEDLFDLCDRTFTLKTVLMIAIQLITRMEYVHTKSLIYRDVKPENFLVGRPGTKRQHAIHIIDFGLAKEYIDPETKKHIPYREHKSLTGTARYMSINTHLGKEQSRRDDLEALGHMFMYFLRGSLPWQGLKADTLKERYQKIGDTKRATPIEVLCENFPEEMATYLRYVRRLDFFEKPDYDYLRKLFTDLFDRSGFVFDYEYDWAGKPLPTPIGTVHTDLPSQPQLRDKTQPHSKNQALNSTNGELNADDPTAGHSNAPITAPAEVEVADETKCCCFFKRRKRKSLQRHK
# From the text: (§6) Detailed information on the assay condition is available on the website of Carna Biosciences (http://www.carnabio.com). Full-length human CK1α, CK1γ1, CK1γ2, CK1γ3 and catalytic domain of human CK1ϵ were expressed as N-terminal GST-fusion protein using baculovirus system, and purified by using glutathione sepharose chromatography. Catalytic domain of CK1δ was expressed as N-terminal GST-fusion protein in E. coli, and purified by using glutathione sepharose chromatography.
# human CK1ϵ = target: T5, human CK1ϵ (Homo sapiens, UniProt P49674); test: In vitro kinase assay (QuickScout mobility shift assay), CK1ϵ; type: biochemical; details: substrate peptide CKtide; ATP at Km 16 μM; average of duplicated experiments
# T5 construct: catalytic domain of human CK1ϵ were expressed as N-terminal GST-fusion protein; GST (N); purchased Carna Biosciences, Inc; host or cells: baculovirus system (insect cells)
# T5 sequence (P49674 9-277 limits assumed): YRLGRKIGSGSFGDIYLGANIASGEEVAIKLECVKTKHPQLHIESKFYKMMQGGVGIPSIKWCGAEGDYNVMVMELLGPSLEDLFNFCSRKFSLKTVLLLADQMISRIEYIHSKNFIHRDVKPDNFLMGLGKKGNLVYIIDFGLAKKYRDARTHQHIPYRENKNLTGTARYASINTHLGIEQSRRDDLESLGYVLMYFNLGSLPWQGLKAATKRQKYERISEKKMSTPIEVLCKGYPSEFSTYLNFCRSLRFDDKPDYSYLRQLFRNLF
# From the text: as §6
# CK1δ [5] = target: T6, CK1δ (Homo sapiens, UniProt P48730); test: In vitro kinase assay (QuickScout mobility shift assay), CK1δ; type: biochemical
# T6 construct: Catalytic domain of CK1δ was expressed as N-terminal GST-fusion protein in E. coli; GST (N); purchased Carna Biosciences, Inc; host or cells: E. coli
# T6 sequence (P48730 9-277 limits assumed): T5 sequence (P49674 9-277 limits assumed) with A19T, N20D, S23A, F47I, S59T, K61R, S241A
# From the text: as §6
# human CK1γ3 = target: T7, human CK1γ3 (Homo sapiens, UniProt Q9Y6M4); test: In vitro kinase assay (QuickScout mobility shift assay), CK1γ3; type: biochemical; details: substrate peptide CKtide; ATP at Km 3.2 μM; average of duplicated experiments
# T7 construct: Full-length human CK1α, CK1γ1, CK1γ2, CK1γ3; GST (N); purchased Carna Biosciences, Inc; host or cells: baculovirus system (insect cells)
# T7 sequence (Q9Y6M4 whole entry): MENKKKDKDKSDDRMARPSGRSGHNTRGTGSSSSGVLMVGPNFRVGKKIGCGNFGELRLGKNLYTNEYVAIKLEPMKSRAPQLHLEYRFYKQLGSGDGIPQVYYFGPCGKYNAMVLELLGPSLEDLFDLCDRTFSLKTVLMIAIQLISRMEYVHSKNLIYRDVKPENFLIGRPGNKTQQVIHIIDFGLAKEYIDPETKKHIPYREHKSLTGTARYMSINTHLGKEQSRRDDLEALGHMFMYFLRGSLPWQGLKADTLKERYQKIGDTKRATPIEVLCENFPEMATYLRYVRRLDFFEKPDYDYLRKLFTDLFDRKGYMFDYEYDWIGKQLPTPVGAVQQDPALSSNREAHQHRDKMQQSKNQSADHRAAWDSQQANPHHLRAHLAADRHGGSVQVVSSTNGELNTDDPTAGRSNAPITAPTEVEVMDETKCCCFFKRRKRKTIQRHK
# From the text: as §6
# [6] = test system: substantia gelatinosa neurons; test: Whole-cell patch-clamp recording of sIPSCs in spinal cord slices; type: cell-based, mouse; details: 1 μM, holding potential 0 mV
# Protocol: as §3
# Blind whole-cell patch-clamp recordings were made from the lamina II (substantia gelatinosa: SG) neurons ipsilateral to carrageenan, CFA, or vehicle (saline or IFA) injection in voltage clamp mode. Patch pipettes were fabricated from thin-walled, borosilicate, glass-capillary tubing (1.5 mm o.d., World Precision Instruments). […] Data were stored with a personal computer using pCLAMP10 software and analyzed with Mini Analysis software (Synaptosoft Inc., Decatur, GA, USA).
# as §4
smiles,measurement,setting,value
Nc1nccc(-c2c(-c3ccc(F)cc3)ncn2C2CCCCC2)n1 [PF-670462],CK1ϵ-induced nuclear translocation of mCherry-PER3,CK1ϵ; 1 μM,also inhibited the nuclear translocation
CCN1/C(=C/C(C)=O)Sc2ccc(OC)cc21 [TG003],"withdrawal latency of the ipsilateral hind paw (thermal hyperalgesia), carrageenan",[1],dose-dependently increased
same,"withdrawal threshold of the ipsilateral hind paw (mechanical allodynia), carrageenan",[1],dose-dependently increased
same,CFA-induced mechanical allodynia,[2]; 1 pmol i.t.,significantly reversed
same,CFA-induced thermal hyperalgesia,[2]; 1 pmol i.t.,did not affect
same,"withdrawal latency of the ipsilateral hind paw (thermal hyperalgesia), CFA",[2],dose-dependently increased
same,"withdrawal threshold of the ipsilateral hind paw (mechanical allodynia), CFA",[2],dose-dependently increased
same,CK1δ-induced nuclear translocation of mCherry-PER3,CK1δ [3],inhibited the nuclear translocation of mCherry-PER3
same,"frequency and amplitude of sEPSCs, control mice",[4],altered neither the frequency nor the amplitude of sEPSCs
same,mean frequency of sEPSCs in inflammatory pain model mice,[4],decreased
same,IC50,"human CK1α; substrate peptide CKtide, ATP at Km 4.1 μM, average of duplicated experiments, read-out: IC50 on the kinase activity of CK1α",330 nM
same,CK1ϵ-induced nuclear translocation of mCherry-PER3,CK1ϵ; 30 μM,inhibited the nuclear translocation of mCherry-PER3
same,IC50,"human CK1γ1; substrate peptide CKtide, ATP at Km 6.3 μM, average of duplicated experiments, read-out: IC50 on the kinase activity of CK1γ1",1500 nM
COc1cc(OC)c(C=C2C(O)=Nc3ccccc32)c(OC)c1 [IC261],"withdrawal latency of the ipsilateral hind paw (thermal hyperalgesia), carrageenan",[1],dose-dependently increased
same,"withdrawal threshold of the ipsilateral hind paw (mechanical allodynia), carrageenan",[1],dose-dependently increased
same,development of thermal hyperalgesia induced by carrageenan,"[1]; spinal preemptive treatment, i.t. 30 min before carrageenan",dose-dependently attenuated
same,"withdrawal latency of the ipsilateral hind paw (thermal hyperalgesia), CFA",[2],dose-dependently increased
same,"withdrawal threshold of the ipsilateral hind paw (mechanical allodynia), CFA",[2],dose-dependently increased
same,IC50,human CK1γ2,> 30000 nM
same,"frequency and amplitude of sEPSCs, control mice",[4],altered neither the frequency nor the amplitude of sEPSCs
same,mean frequency of sEPSCs in inflammatory pain model mice,[4],decreased
same,IC50,human CK1ϵ,860 nM
same,IC50,human CK1α,190 nM
same,IC50,CK1δ [5],600 nM
same,IC50,human CK1γ3,> 30000 nM
same,sIPSCs from the inflamed mice,[6]; carrageenan- and CFA-inflamed mice,did not affect sIPSCs
same,mean amplitude of control sIPSCs,[6]; control mice,slight but significant reduction
same,IC50,human CK1γ1,> 30000 nM
